Experiment [1] is described as follows: Oxygen Radical Absorbance Capacity (ORAC) assay, antioxidant activity. Format: biochemical. The note with it: individual avenanthramides. The method, then: To test the effect of varying avenanthramide ratios on antioxidant activity and inflammation in vitro, the inventors created an avenanthramide ingredient from pure avenanthramides which had similar ratios of avenanthramides 2c:2p:2f as was present in each of the three different oat fractions: hulls, flour, and trichomes. Thereafter, antioxidant activity was measured using the ORAC assay and anti-inflammatory effect was measured using an NF-κB inhibitory assay.
The first avenanthramide ingredient was created from 2c:2p:2f having a ratio of about 1:1:1, which corresponded to the concentration present in oat hulls. The second avenanthramide ingredient had avenanthramides 2c:2p:2f having a ratio of about 1:1:2, which corresponded to the concentration present in oat flour. Finally, the last avenanthramide ingredient tested had 2c:2p:2f in a ratio of about 1:2:2, which corresponded to the concentration present in oat trichomes. An ORAC assay was used to measure the antioxidant activity of each of these avenanthramide ingredients and the results are presented in Table 1.

The conditions of experiment [2]: Peterson et al., 2001; cited from earlier work.

With `O=C(/C=C/c1ccc(O)c(O)c1)Nc1ccc(O)cc1C(=O)O` [Avenanthramide 2c, avenanthramide 2c], in experiment [1], the ORAC is 33741.00 A* TE/g. In addition, in experiment [2], the “antioxidant activity in vitro” value is given as “highest antioxidant activity”.
The molecule `COc1cc(/C=C/C(=O)Nc2ccc(O)cc2C(=O)O)ccc1O` [Avenanthramide 2f, avenanthramide 2f] showed an ORAC in experiment [1] of 21812.67 B TE/g.
`O=C(/C=C/c1ccc(O)cc1)Nc1ccc(O)cc1C(=O)O` [Avenanthramide 2p, avenanthramide 2p]: the ORAC in experiment [1] amounted to 18504.33 B TE/g.

These data come from patent US9826759B2, “Avenanthramide-enriched oat product” (THE QUAKER OATS COMPANY, priority 2014, dated 2017).
